Measurements: patent US10265378B2, “Combination therapy for head and neck cancer” (Cornell University, priority 2014, dated 2019)

What was measured:
[1] = system: 4-hydroxynonenal (4-HNE), marker of oxidative stress; assay: Immunohistochemistry of tongue epithelium: 4-HNE; type: in vivo, mouse; details: compared to the 4-NQO group; antibody staining
Method: (§1) Immunohistochemistry. Paraffin embedded tongue sections were stained with various antibodies (supporting information).
(§2) Immunohistochemistry. Paraffin-embedded sections (from two to four mice per group) were deparaffinized and rehydrated, and antigen retrieval was performed using an antigen unmasking solution (Vector Laboratories, H-3300). After quenching endogenous peroxidase with 3% H2O2, the tissue sections were blocked with the blocking reagent (from the M.O.M. kit from Vector Laboratories for 4-HNE) or 10% goat serum (Vector Laboratories). Then, tissue sections were incubated with a 4-HNE antibody (1:700; mouse monoclonal antibody; Abcam, ab48506), a β-catenin antibody (1:400; rabbit polyclonal antibody; Abcam, ab6302), or a MMP9 antibody (1:70; rabbit polyclonal antibody; Abcam, ab38898), respectively, overnight at 4° C. The sections were then incubated with secondary antibodies (1:200, anti-mouse IgG from the M.O.M kit for 4-1-INE; ready-to-use anti-rabbit IgG from the Invitrogen SuperPicture kit for β-catenin and MMP9). As a negative control, sections were stained without incubation with primary antibodies. The signals were visualized based on a peroxidase detection mechanism with 3,3-diaminobenzidine (DAB) used as the substrate. Four to five representative areas of each mouse tongue section from two to four mice per group were photographed and analyzed.

β-catenin = assay: Immunohistochemistry of tongue epithelium: β-catenin; type: in vivo, mouse; details: compared to the 4-NQO group; antibody staining
Method: as §1, §2

IL-6 = assay: Immunohistochemistry of tongue epithelium: IL-6; type: in vivo, mouse; details: compared to the 4-NQO group; antibody staining
Excerpt: (§3) The tongues were fixed, embedded in paraffin, and sectioned. Then the tissue sections were stained with various antibodies (magnification, 200×). Four to five representative areas of each tongue section from two to four mice/group were photographed and analyzed (FIGS. 12A and 12B). Interleukin-6 (IL-6) is a multifunctional cytokine that is involved in the regulation of immune responses and cellular functions. IL-6 levels are enhanced in human oral squamous cell carcinoma and IL-6 is considered a bad prognostic factor in this cancer (Expert Opin Ther Targets. 2013 January; 17(1):53-9). IL-6 protein was detected primarily in the basal layer of tongue epithelium in the UNT samples (FIG. 12A, arrows), but in the 4-NQO treated samples we observed both an increase in the protein level and an expansion of IL-6 signal to the suprabasal layers of the tongue epithelium (FIG. 12A).

[2] = system: mouse tongue mRNA transcriptome; assay: RNA-Seq analysis of the mRNA transcriptome of mouse tongues; type: in vivo; details: compared to the 4-NQO group
Method: RNA-Seq analysis of the mRNA transcriptome. One part of each mouse tongue (same position on each mouse tongue) was snap frozen in liquid N2 and stored at −70° C. until total RNA extraction. Total tissue RNA was extracted and subjected to Next-Generation Sequencing (RNA-Seq) at the Genomics Resources Core Facility, Weill Cornell Medical College. Bioinfomatics analyses were performed using the Tophat and Cufflink software. (supporting information).
RNA-Seq analysis of mRNA transcriptome. […] The GEO Accession number is GSE54246; embargoed until publication.

[3] = system: tongue lesions (4-NQO induced oral cavity carcinogenesis); assay: 4-NQO mouse oral cavity carcinogenesis model: gross tongue lesion number and severity
[4] = Mouse serum triglyceride level measurements; type: in vivo; details: treatment for 15 weeks; compared to the UNT group
Method: Mouse serum triglyceride level measurements. Blood samples from the mice were obtained from mouse tails. The analysis of serum triglyceride levels was carried out at the Laboratory of Comparative Pathology of the Memorial Sloan-Kettering Cancer Center. UNT (n=4); 4-NQO (n=3); 4N+B (n=4); 4N+C (n=3), and 4N+B+C (n=4).

MCT4 = assay: Immunohistochemistry of tongue epithelium: MCT4; type: in vivo, mouse; details: compared to the 4-NQO group; antibody staining
Excerpt: as §3

[5] = system: GO categories in mouse tongue; assay: Gene ontology (GO) analysis of RNA-Seq data; type: in vivo; details: compared to the 4-NQO group
Method: Gene ontology (GO) analysis. Gene ontology (GO) analysis (p-value cutoff: 0.00001), using the ConsensusPathDB online tool, was conducted on the Gene Ontology level 3 of the “Biological Process” domain that has predefined, functional sets for enrichment analysis with default parameter settings.

[6] = system: pathways (Reactome, KEGG, MouseCyc) in mouse tongue; assay: Pathway enrichment analysis (ConsensusPathDB) of RNA-Seq data
[7] = Consumption of drug containing drinking water and diet; type: in vivo, mouse; details: 4-NQO treated mice, 15 week post 4-NQO treatment
Excerpt: Drug treatments reduce tongue tumor development. All of the mice tolerated the 10 week 4-NQO treatment, and almost all of the mice survived the 15 week post 4-NQO treatment period (A). We determined that the CD1530 in the regular drinking water was stable for at least 7 days at room temperature by HPLC analysis (FIG. 7); thus, we decided to use drinking water as a delivery method because this method is effective and less laborious.

[8] = down-regulated vs. 4-NQO group, KEGG
[9] = down-regulated vs. 4-NQO group, Reactome
[10] = upregulated vs. 4-NQO group, KEGG

- consumption of drug containing diet vs regular diet [7]: comparable
SMILES: C=C(c1ccc(C(=O)O)cc1)c1cc2c(cc1C)C(C)(C)CCC2(C)C [bexarotene]
- 4-HNE levels in tongue samples [1]: lower
- β-catenin protein levels in the tongue epithelium (β-catenin): lower β-catenin protein levels
- IL-6 protein levels in the tongue epithelium (IL-6): lower IL-6 protein levels
- transcript levels of DNA replication genes (MCM 2-7 and 10, DNA2, LIG1, ORC1, POLA1, PRIM2) [2]: significantly lower transcript levels of the majority of these genes
- number of genes with decreased transcript levels ([2]; p<0.05): 614
- number of genes with increased transcript levels ([2]; p<0.05): 436
- number of genes with significantly different transcript levels ([2]; p<0.05): 1050
- number of tongue lesions (gross tongue lesion multiplicity) ([3]; C57BL/6 female mice, 4-NQO 10 weeks, then drug in 15 week post 4-NQO period, bexarotene 300 mg/kg diet, CD1530 […]100 ml drinking water, 4-NQO group 5.9±3.2): 5.3±1.4
- average severity of tongue lesions (grade 0-4) ([3]; same model, 4-NQO group 2.8±0.8): 1.9±1.2
- lesions at grade 1 ([3]; same model, 4-NQO group all lesions at or greater than grade 2): 50%
- serum triglyceride levels [4]: did not change serum triglyceride levels significantly
- MCT4 protein levels in the tongue epithelium (MCT4): lower MCT4 protein levels
- GO categories related to cell cycle, DNA replication, and mitosis [5]: most under-expressed
- candidates contained, pathway Cell cycle-Mus musculus (mouse) [6, 8]: 19 (15.0%)
- candidates contained, pathway Complement and coagulation cascades-Mus musculus (mouse) [6, 8]: 21 (27.6%)
- candidates contained, pathway Retinol metabolism-Mus musculus (mouse) [6, 8]: 14 (17.7%)
- candidates contained, pathway Activation of ATR in response to replication stress [6, 9]: 10 (26.3%)
- candidates contained, pathway Activation of the pre-replicative complex [6, 9]: 9 (31.0%)
- candidates contained, pathway Cell Cycle [6, 9]: 46 (15.1%)
- candidates contained, pathway Cell Cycle Checkpoints [6, 9]: 16 (20.8%)
- candidates contained, pathway Cell Cycle, Mitotic [6, 9]: 44 (16.4%)
- candidates contained, pathway Common Pathway [6, 9]: 6 (46.2%)
- candidates contained, pathway DNA Replication [6, 9]: 34 (21.7%)
- candidates contained, pathway DNA Replication Pre-Initiation [6, 9]: 10 (27.8%)
- candidates contained, pathway Formation of Fibrin Clot (Clotting Cascade) [6, 9]: 10 (29.4%)
- candidates contained, pathway G1/S Transition [6, 9]: 12 (19.4%)
- candidates contained, pathway G2/M Checkpoints [6, 9]: 13 (28.9%)
- candidates contained, pathway HDL-mediated lipid transport [6, 9]: 7 (41.2%)
- candidates contained, pathway Hemostasis [6, 9]: 37 (12.3%)
- candidates contained, pathway Lipid digestion, mobilization, and transport [6, 9]: 11 (22.4%)
- candidates contained, pathway Lipoprotein metabolism [6, 9]: 11 (35.5%)
- candidates contained, pathway M Phase [6, 9]: 22 (22.2%)
- candidates contained, pathway M/G1 Transition [6, 9]: 10 (27.8%)
- candidates contained, pathway Metabolism of amino acids and derivatives [6, 9]: 21 (16.9%)
- candidates contained, pathway Mitotic G1-G1/S phases [6, 9]: 14 (19.2%)
- candidates contained, pathway Mitotic M-M/G1 phases [6, 9]: 32 (23.7%)
- candidates contained, pathway Mitotic Prometaphase [6, 9]: 21 (22.1%)
- candidates contained, pathway Phenylalanine and tyrosine catabolism [6, 9]: 5 (62.5%)
- candidates contained, pathway Platelet degranulation [6, 9]: 15 (23.4%)
- candidates contained, pathway Response to elevated platelet cytosolic Ca2+ [6, 9]: 15 (21.4%)
- candidates contained, pathway Calcium signaling pathway-Mus musculus (mouse) [6, 10]: 15 (8.4%)
- candidates contained, pathway Gastric acid secretion-Mus musculus (mouse) [6, 10]: 10 (13.7%)
